Laboratory results taken from article PMC5905120, “An innovative immunotherapeutic strategy for ovarian cancer: CLEC10A and glycomimetic peptides” (Journal for Immunotherapy of Cancer, 2018).
Bridges are numbered along the chain shown (N, C = ends). Roman numbers before positions name the chains, in order. Where no end group is shown, it is not given here.

Legend:
[1] = Antigenicity assay in mouse sera; format: in vivo; details: 1 nmole/g s.c., alternate days for 3 months; sera of 8 treated mice, Fig. 8
Method: The sequence of one arm of svL4 or sv6D was conjugated to keyhole limpet hemocyanin (KLH) and injected into rabbits at two week intervals (total of 3 injections) (New England Peptide, Inc., Gardner, MA). Two weeks after the final injection, sera were prepared. Mice were injected with a peptide every other day over a period of 3 months (total ~ 45 injections), blood was then collected by cardiac puncture and sera were prepared. Rabbit serum was diluted 1:10, whereas mouse serum was diluted 1:1 or 1:5 with PBS containing 0.05% Tween-20 (PBST). Sera were incubated in microtiter wells coated with protein A/G (Pierce) for 90 min. The wells were washed three times with PBST, and then incubated with 50 μL of 1 μM biotinylated svL4 or sv6D for 1 h. The wells were washed four times with PBST, incubated 1 h with 1 μg/mL streptavidin-peroxidase conjugate, and washed four times with PBST. Peroxidase activity was assayed as above under Binding Assays.
Fig. 8 Test for antigenicity of svL4 and sv6D. Anti-sera were generated in rabbits against KLH-conjugates of the sequences of svL4 or sv6D and diluted 1:10. Mouse sera were collected after alternate-day injections of svL4 over 3 months, diluted 1:1 with PBS and added to protein-A/G-coated wells. Biotinylated svL4 or sv6D was added to wells and bound peptide was detected with a streptavidin-peroxidase conjugate. […]

human ASGPR-1 = target: T1, human ASGPR-1 (Homo sapiens, UniProt P07306); experiment: Solid-phase binding to recombinant human ASGPR-1; details: Fig. 2a, representative of 3 independent experiments
T1 construct: purchased R&D Systems
T1 sequence (P07306 62-291 limits assumed): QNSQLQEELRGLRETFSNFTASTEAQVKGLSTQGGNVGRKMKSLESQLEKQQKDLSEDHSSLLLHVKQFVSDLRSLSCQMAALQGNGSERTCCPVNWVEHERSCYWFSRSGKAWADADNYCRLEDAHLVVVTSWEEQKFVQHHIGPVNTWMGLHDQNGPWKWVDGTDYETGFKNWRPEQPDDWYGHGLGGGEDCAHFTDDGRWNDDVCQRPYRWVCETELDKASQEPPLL
Method: (§1) Solid-phase binding assays were performed with streptavidin-, protein A/G-, or Nickel-coated microtiter plates (Pierce). His-tagged or Fc-fusion recombinant receptors (R&D Systems, Minneapolis, MN) were reconstituted in PBS. Sufficient receptors were added to wells to saturate the coating. His-tagged receptors were added to each well at a 5-fold excess over the stated capacity of the Ni coating to minimize non-specific binding of the peptide. Wells were washed three times with binding buffer (25 mM Tris HCl, pH 7.4, 150 mM NaCl, 0.05% Tween-20) to remove unbound receptor and 50 μL of 2 μM biotinylated peptide in binding buffer were added and allowed to incubate for 1 h. The wells were washed four times with binding buffer and then incubated with 50 μL of 1 μg/mL streptavidin conjugated with peroxidase (Sigma-Aldrich) for 1 h. The wells were washed five times with binding buffer and 50 μL of peroxidase substrate (1-Step™ Ultra TMB, Pierce) were added. After several minutes to allow color development, the reaction was stopped with 50 μL 1 M H3PO4 and absorbance was measured at 450 nm. Bound streptavidin was quantitated by the specific activity of peroxidase (absorbance/ng protein conjugate/min) under the conditions of the assay.
Solid-phase binding assays were performed with recombinant human receptors. Three variations of the binding assay were used in this study, all of which allowed the arms of the tetravalent peptide to have full flexibility. (i) Biotinylated peptide was bound in microtiter wells coated with streptavidin and incubated with recombinant human receptors. After extensive washing, the bound receptor was measured by peroxidase conjugated to a receptor-specific antibody. (ii) The extracellular domains of receptors, which were fused with the Fc domain of immunoglobulin IgG, were bound in wells coated with protein A/G. Biotinylated peptide was incubated with the receptors and, after extensive washing, bound peptide was measured with streptavidin conjugated with peroxidase. Or (iii), recombinant receptors with a poly-His tag were bound to Nickel-coated wells and incubated with biotinylated peptide. svL4 and sv6D contain His residues (see Table 1) and can bind to the Ni coating, which was minimized by adding sufficient poly-His-tagged receptor to saturate the Ni coating.

[2] = test system: TREG cells within melanoma tumors; experiment: TREG cells in tumors of melanoma-bearing mice; format: in vivo, mouse; details: preliminary (data not shown)
[3] = test system: peritoneal cells of Balb/c mice; experiment: Peritoneal immune cell populations by flow cytometry, healthy Balb/c mice; format: in vivo, mouse (Balb/c)
Method: Healthy C57BL/6 male mice, 10 weeks old, were injected subcutaneously with peptides on alternate days. Peritoneal cells were isolated from mice 24 h after dosing by injecting ice cold PBS (containing 3% FBS) into the peritoneal cavity, gently massaging the abdomen, and then collecting the fluid, which was transferred into K2EDTA-treated tubes for evaluation of specific biomarkers. Cells from three mice in each group were pooled, counted and divided among FACS tubes (1 × 10^6 cells per tube). Cells were washed once in PBS containing 3% FBS, then stained with 0.25 to 1 μg of fluorescently conjugated antibody per 10^6 cells in 100 μL of buffer as recommended by the manufacturer (Table 2).
Cells were incubated with the antibodies for 30 min at 4 °C in the dark. Following staining, the cells were washed two times with PBS/3% FBS and immediately analyzed with a MACSQuant flow cytometer (Miltenyi Biotech, Inc., San Diego, CA). Compensation was performed using single stain tubes for each color present in the analysis as well as an unstained control sample. Collection of flow cytometric data and analysis with FlowJo software, version 10.0.6 (FlowJo, LLC, Ashland, OR) were performed by Biomodels LLC (Watertown, MA).
To examine whether increases occurred in mature immune cells, peritoneal cells from Balb/c and C57BL/6 mice were analyzed by flow cytometry after cells were stained with the markers listed in Table 2. […] To explore this observation more extensively, svL4 or sv6D was injected into C57BL/6 mice on day 0, 2 or 4. Peritoneal cells were examined by flow cytometry 24 h after each injection. Shown in Fig. 5 are results expressed as cell counts for F4/80 CD11b CD86 (mature, active macrophages); CD11c (DCs); CD11c CD 86 (activated DCs); CD4 CD69 (activated T cells); CD8 CD69 (activated cytotoxic T cells); NK1.1 CD3^+ CD69 (activated NKT cells); NK1.1 CD3^− CD69 (activated NK cells); CD19 (B cells); and CD19 CD73 CD80 CD273 (memory B cells). The numbers of these mature, activated cells continued to increase with each injection.

CLEC9A = experiment: Solid-phase binding to CLEC9A; design: species or system human; details: Fig. 2b
Method: as §1, with “The wells were washed five times with binding buffer and 50 μL of peroxidase substrate (1-Step™ Ultra TMB, Pierce) were added.” left out
Solid-phase binding assays were performed with recombinant human receptors. […] After extensive washing, the bound receptor was measured by peroxidase conjugated to a receptor-specific antibody. […]

I: VQATQSNQHTPRGGGSKK-NH2 / II: VQATQSNQHTPRGGGSK / III: VQATQSNQHTPRGGGS / IV: VQATQSNQHTPRGGGS (amide I:17-IV:C, I:18-II:C, II:17-III:C) [svL4]
antibodies that bind the peptides in mouse sera [1]: negative | binding to ASGPR-1 (human ASGPR-1): also to ASGPR-1 | TREG cells within tumors [2]: dramatic reduction in TREG cells | increases in macrophages, DCs, T cells and NK cells ([3]; 1 nmole/g s.c., 24 h after a single injection): Several-fold increases | CD90.2^+ fraction of small cells ([3]; after treatment with svL4): about 15% | increase in mature immune cells ([3]; within 24 h after a single injection (data not shown)): approximately 2 fold | small cells (low FSc, low SSc) ([3]; within 24 h after injection, healthy Balb/c, Fig. S1b): decreased to a minimal level | binding to CLEC9A (CLEC9A): did not bind significantly
